Patent publication US10168342B2, “Lipid probes and uses thereof” (THE SCRIPPS RESEARCH INSTITUTE, priority 2015, dated 2019)
Read-outs that look alike come from different tables or passages of the source.

Tests used:
[1] = biological target: AEA-DA lipid probe targets in Neuro2a cells (Mus musculus, UniProt Q80YV4); settings: competitor 200 μM
[2] = biological target: T1, lipid-binding proteins in A549 cells (Homo sapiens, UniProt P67812); experiment: SILAC MS mapping of UV-dependent lipid probe targets in A549 cells; type: cell-based; settings: AEA-DA probe vs NoUV
T1 construct: endogenous in cells; host or cells: A549 (PMA-stimulated for the PTGS2 experiments)

[3] = biological target: T2, lipid-binding proteins in A549 cells (Homo sapiens, UniProt O95470); experiment: as above; type: cell-based; settings: AEA-DA probe vs NoUV
T2 construct: endogenous in cells; host or cells: A549 (PMA-stimulated for the PTGS2 experiments)

[4] = biological target: T3, lipid-binding proteins in A549 cells (Homo sapiens, UniProt Q53GQ0); experiment: as above; type: cell-based; settings: AEA-DA probe vs NoUV
T3 construct: endogenous in cells; host or cells: A549 (PMA-stimulated for the PTGS2 experiments)

[5] = biological target: T4, lipid-binding proteins in A549 cells (Homo sapiens, UniProt Q9H4I3); experiment: as above; type: cell-based; settings: AEA-DA probe vs NoUV
T4 construct: endogenous in cells; host or cells: A549 (PMA-stimulated for the PTGS2 experiments)

[6] = biological target: T5, lipid-binding proteins in A549 cells (Homo sapiens, UniProt P07602); experiment: as above; type: cell-based; settings: AEA-DA probe vs NoUV
T5 construct: endogenous in cells; host or cells: A549 (PMA-stimulated for the PTGS2 experiments)

[7] = biological target: T6, AEA-DA-modified peptides in Neuro2a cells (Mus musculus, UniProt P34884); experiment: isoTOP-ABPP mapping of AEA-DA-modified peptides in Neuro2a cells; type: cell-based; settings: AEA-DA-modified peptide MIF P34884 13-38, SEQ ID NO 60; probe 100 μM, 12 replicates
T6 construct: endogenous in cells; host or cells: Neuro2a

[8] = biological target: T7, AEA-DA-modified peptides in Neuro2a cells (Mus musculus, UniProt P84078); experiment: as above; type: cell-based; settings: AEA-DA-modified peptide ARF1 P84078 39-60, SEQ ID NO 10; probe 100 μM, 12 replicates
T7 construct: endogenous in cells; host or cells: Neuro2a

[9] = biological target: T8, AEA-DA-modified peptides in Neuro2a cells (Mus musculus, UniProt Q99P72); experiment: as above; type: cell-based; settings: AEA-DA-modified peptide RTN4 Q99P72 1045-106, SEQ ID NO 94; probe 100 μM, 12 replicates
T8 construct: endogenous in cells; host or cells: Neuro2a

[10] = biological target: T9, AEA-DA-modified peptides in Neuro2a cells (Mus musculus, UniProt Q9D2R6); experiment: as above; type: cell-based; settings: AEA-DA-modified peptide CCDC56 Q9D2R6 84-94, SEQ ID NO 22; probe 100 μM, 12 replicates
T9 construct: endogenous in cells; host or cells: Neuro2a

[11] = biological target: T10, AEA-DA-modified peptides in Neuro2a cells (Mus musculus, UniProt Q8BGC4); experiment: as above; type: cell-based; settings: AEA-DA-modified peptide ZADH2 Q8BGC4 86-115, SEQ ID NO 122; probe 100 μM, 12 replicates
T10 construct: endogenous in cells; host or cells: Neuro2a

[12] = biological target: AEA-DA lipid probe targets in Neuro2a cells (Mus musculus, UniProt Q9QXS1); settings: competitor 25 μM
[13] = biological target: T11, AEA-DA lipid probe targets in Neuro2a cells (Mus musculus, UniProt P45878); settings: protein Fkbp2, Neuro2a cells
T11 sequence (P45878 23-140): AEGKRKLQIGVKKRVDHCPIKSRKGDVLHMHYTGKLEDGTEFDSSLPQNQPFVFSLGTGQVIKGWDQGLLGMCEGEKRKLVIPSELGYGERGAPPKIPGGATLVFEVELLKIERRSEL

[14] = biological target: AEA-DA lipid probe targets in Neuro2a cells (Mus musculus, UniProt P21619); settings: protein Lmnb2; Neuro2a cells; competitor 50 μM

Chain of AEA-DA lipid probe targets in Neuro2a cells (Mus musculus, UniProt Q9QXS1) (Q9QXS1 whole entry): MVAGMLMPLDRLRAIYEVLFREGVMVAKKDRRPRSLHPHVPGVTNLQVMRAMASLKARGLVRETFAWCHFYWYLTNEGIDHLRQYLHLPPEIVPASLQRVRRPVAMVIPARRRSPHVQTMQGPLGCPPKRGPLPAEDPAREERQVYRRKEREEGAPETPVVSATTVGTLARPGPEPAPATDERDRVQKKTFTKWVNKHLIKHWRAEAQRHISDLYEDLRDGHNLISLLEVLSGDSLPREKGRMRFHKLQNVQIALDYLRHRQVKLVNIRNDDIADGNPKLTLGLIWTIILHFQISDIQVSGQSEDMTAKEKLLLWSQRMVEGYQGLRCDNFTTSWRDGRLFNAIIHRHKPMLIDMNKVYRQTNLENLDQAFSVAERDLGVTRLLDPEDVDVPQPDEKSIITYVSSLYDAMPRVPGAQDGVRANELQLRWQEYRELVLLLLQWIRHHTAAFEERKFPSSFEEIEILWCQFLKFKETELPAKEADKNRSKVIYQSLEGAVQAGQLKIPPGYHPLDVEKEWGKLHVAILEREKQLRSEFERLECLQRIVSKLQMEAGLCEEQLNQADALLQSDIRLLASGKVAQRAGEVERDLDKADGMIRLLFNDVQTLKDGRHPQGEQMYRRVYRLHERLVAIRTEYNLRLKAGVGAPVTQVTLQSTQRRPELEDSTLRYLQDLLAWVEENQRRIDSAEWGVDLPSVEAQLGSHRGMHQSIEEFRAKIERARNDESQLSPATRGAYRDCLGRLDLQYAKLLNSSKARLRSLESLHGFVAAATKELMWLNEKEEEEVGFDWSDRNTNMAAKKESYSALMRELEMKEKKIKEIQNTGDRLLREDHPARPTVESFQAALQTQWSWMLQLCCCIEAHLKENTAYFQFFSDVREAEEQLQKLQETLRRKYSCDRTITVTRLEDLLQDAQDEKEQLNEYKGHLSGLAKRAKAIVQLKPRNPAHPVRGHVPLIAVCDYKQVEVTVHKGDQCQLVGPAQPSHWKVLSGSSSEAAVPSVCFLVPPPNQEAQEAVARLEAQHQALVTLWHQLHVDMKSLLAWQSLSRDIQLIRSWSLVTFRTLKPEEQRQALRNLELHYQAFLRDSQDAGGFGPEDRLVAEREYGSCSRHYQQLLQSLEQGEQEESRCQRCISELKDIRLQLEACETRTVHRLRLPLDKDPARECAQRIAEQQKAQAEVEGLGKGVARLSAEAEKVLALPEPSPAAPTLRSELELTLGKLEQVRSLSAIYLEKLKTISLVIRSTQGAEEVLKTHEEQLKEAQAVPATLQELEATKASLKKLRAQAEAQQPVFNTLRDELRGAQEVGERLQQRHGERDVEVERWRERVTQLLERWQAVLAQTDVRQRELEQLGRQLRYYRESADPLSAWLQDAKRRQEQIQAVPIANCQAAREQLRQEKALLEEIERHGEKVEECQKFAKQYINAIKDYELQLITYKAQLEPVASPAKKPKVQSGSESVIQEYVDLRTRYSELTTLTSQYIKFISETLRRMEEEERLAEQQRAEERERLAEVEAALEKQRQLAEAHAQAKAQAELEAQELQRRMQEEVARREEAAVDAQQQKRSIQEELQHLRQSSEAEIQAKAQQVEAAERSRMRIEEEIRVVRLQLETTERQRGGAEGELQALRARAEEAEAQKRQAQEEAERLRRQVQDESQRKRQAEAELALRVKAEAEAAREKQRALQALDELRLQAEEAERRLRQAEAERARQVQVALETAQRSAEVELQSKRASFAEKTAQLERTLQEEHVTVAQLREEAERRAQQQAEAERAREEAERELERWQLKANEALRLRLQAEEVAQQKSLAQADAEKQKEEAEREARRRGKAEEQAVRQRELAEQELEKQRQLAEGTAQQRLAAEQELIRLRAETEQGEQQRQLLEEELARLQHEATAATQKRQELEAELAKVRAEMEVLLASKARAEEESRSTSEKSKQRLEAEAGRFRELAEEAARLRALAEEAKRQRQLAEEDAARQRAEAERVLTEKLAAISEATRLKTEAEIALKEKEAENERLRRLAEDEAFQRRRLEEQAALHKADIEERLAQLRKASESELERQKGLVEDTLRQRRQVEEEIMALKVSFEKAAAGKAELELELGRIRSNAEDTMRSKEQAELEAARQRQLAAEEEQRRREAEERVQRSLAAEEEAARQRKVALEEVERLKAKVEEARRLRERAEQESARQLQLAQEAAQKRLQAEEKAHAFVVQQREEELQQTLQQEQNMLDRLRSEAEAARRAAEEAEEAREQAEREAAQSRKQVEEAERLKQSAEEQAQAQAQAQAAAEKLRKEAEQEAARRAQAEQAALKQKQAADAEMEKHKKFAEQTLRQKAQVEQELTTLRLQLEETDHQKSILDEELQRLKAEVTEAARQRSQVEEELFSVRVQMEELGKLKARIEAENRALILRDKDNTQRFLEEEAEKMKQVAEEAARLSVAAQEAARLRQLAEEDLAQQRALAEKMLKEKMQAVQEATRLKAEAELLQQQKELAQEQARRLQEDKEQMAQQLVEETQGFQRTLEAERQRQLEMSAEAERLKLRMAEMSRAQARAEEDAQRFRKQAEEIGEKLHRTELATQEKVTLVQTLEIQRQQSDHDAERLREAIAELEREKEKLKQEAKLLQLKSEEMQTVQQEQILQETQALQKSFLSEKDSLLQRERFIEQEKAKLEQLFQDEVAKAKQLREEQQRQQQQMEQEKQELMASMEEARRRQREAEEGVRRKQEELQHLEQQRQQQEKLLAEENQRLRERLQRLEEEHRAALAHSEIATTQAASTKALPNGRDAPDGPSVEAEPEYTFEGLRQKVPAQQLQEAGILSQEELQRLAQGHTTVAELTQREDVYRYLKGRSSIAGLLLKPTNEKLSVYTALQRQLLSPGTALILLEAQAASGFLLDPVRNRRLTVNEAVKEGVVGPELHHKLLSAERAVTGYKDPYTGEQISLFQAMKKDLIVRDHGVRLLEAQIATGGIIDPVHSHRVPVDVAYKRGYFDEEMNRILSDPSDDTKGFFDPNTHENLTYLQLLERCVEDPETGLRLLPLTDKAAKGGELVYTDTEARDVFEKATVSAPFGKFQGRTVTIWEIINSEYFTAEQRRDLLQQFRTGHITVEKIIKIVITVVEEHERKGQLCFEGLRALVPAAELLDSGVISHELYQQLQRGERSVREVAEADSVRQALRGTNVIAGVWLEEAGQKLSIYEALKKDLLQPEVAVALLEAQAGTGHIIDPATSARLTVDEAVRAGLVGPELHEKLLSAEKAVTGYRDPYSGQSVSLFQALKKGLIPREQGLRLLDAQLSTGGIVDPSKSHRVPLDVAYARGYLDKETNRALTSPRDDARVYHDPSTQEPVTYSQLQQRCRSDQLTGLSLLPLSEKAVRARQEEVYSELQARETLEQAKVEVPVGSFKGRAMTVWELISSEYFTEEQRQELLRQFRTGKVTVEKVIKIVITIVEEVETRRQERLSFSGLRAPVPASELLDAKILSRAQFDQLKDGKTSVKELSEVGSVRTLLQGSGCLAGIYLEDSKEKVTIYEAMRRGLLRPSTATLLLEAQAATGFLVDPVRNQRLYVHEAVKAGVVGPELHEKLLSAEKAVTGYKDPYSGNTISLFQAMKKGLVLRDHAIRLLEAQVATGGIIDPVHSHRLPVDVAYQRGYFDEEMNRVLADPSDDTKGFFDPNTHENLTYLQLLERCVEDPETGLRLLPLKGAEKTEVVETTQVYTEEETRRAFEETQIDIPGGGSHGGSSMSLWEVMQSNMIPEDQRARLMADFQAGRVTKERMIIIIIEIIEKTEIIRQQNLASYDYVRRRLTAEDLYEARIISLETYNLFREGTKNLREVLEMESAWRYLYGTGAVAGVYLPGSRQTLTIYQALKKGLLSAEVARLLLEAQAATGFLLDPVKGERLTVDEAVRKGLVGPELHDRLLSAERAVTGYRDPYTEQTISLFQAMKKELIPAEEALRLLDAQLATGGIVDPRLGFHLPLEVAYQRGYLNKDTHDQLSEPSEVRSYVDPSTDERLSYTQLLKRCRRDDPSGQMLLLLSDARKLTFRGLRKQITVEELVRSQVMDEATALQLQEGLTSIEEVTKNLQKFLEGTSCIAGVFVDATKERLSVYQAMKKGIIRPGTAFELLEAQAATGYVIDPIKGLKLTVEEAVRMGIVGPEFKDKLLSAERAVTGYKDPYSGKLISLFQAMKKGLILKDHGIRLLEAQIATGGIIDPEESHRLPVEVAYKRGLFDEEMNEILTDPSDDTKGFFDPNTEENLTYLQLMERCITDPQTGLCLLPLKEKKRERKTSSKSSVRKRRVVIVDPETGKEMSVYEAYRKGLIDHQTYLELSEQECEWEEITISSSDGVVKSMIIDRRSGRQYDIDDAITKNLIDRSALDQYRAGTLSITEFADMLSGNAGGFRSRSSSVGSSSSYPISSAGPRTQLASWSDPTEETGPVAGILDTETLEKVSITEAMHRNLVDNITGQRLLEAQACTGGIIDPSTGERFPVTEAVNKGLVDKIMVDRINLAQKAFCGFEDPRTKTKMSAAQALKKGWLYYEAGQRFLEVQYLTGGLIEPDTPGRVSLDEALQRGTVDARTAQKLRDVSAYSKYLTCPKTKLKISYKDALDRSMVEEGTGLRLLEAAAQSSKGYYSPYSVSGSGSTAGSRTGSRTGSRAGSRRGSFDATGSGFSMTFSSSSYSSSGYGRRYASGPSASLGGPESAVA
T10 sequence (Q8BGC4 whole entry): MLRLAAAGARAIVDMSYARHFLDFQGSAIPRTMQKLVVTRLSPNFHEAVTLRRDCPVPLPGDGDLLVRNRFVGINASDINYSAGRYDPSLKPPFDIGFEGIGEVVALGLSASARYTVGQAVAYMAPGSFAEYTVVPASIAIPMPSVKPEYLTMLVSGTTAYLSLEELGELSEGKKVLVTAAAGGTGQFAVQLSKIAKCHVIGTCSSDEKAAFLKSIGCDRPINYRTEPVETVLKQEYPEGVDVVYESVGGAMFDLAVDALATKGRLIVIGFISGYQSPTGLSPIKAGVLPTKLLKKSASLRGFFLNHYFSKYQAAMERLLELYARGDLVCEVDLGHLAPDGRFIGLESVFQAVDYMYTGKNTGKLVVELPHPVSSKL
T9 sequence (Q9D2R6 whole entry): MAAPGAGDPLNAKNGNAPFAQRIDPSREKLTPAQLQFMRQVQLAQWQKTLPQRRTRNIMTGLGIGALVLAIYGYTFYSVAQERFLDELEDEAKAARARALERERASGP

CCCCC/C=C\C/C=C\C/C=C\C/C=C\CCCC(=O)NCCO [AEA, anandamide, reference compound]
SILAC ratio Pank4 [1]: 1.6

C#CCCCC1(CC/C=C\C/C=C\C/C=C\CCCC(=O)NCCO)N=N1 [AEA-DA, (5Z,8Z,11Z)-N-(2-hydroxyethyl)-14-(3-(pent-4-yn-1-yl)-3H-diazirin-3-yl)tetradeca-5,8,11-trienamide]
SILAC ratio, SEC11A (P67812) [2]: 14.0
SILAC ratio, SGPL1 (O95470) [3]: 20.0
SILAC ratio, HSD17B12 (Q53GQ0) [4]: 20.0
SILAC ratio, TRABD (Q99JY4) [5]: 20.0
SILAC ratio, PSAP (P07602) [6]: 20.0
Times observed [7]: 4
Times observed [8]: 9
Times observed [9]: 7
Times observed [10]: 2
Times observed [11]: 8

O=C(/C=C/c1cccnc1)NCCCCC1CCN(C(=O)c2ccccc2)CC1 [FK-866, reference compound]
SILAC ratio, Plec [12]: 2.1

CN1CCN(C(=O)c2[nH]c3ccc([N+](=O)[O-])cc3c2-c2ccccc2)CC1 [MJN228, (4-Methylpiperazin-1-yl)(5-nitro-3-phenyl-1H-indol-2-yl)methanone]
SILAC ratio (AEA-DA competition) ([13]; competitor 10 μM): 1.1
SILAC ratio (AEA-DA competition) ([13]; competitor 25 μM): 1.6
SILAC ratio (AEA-DA competition) ([13]; competitor 100 μM): 1.1
SILAC ratio (AEA-DA competition) [14]: 1.9
